According to patent US20250145715A1, “B7-H3 TARGETING FUSION PROTEINS AND METHODS OF USE THEREOF” (GT Biopharma, Inc., priority 2021, published 2025):

Experiments:
[1] = system: LNCaP prostate cancer cells; assay: NK cell CD107a / IFNγ flow cytometry against LNCaP; format: cell-based, human; details: normal donor and prostate cancer patient NK cells, vs controls
Excerpt: FIG. 15A is a graph showing pooled analysis of proportion of NK cells from healthy donors or prostate cancer patients expressing CD107a+ (top) or IFNγ (bottom) against C4-2 targets (N=9 for healthy donors, N=3 for patients). FIG. 15B is a graph showing pooled analysis of proportion of NK cells from healthy donors or prostate cancer patients expressing CD107a+ (top) or IFNγ (bottom) against DU145 targets (N=9 for healthy donors, N=3 for patients). FIG. 15C is a graph showing pooled analysis of proportion of NK cells from healthy donors or prostate cancer patients expressing CD107a+ (top) or IFNγ (bottom) against LNCaP targets (N=9 for healthy donors, N=3 for patients). FIG. 15D is a graph showing pooled analysis of proportion of NK cells from healthy donors or prostate cancer patients expressing CD107a+ (top) or IFNγ (bottom) against PC3 targets (N=9 for healthy donors, N=3 for patients). * p<0.05, ** p<0.01, *** p<0.001, and **** p<0.0001.
ADCC was measured in a flow cytometry assay by evaluating degranulation via CD107a (lysosomal-associated membrane protein LAMP-1) and intracellular IFNγ production. Upon thawing, normal donor and patient-derived PBMCs or ascites cells were rested overnight (37° C., 5% CO2) in RPMI 1640 media supplemented with 10% fetal calf serum (RPMI-10). […] Samples were washed and evaluated in an LSRII flow cytometer (BD Biosciences, San Jose, CA, USA). […]

[2] = system: MA-148-luc ovarian cancer cells; assay: Xenogeneic ovarian cancer MA-148-Luc model; format: in vivo, NSG mice
Excerpt: FIGS. 32A-32F illustrate that cam1615B7-H3 TriKE is efficacious in subduing ovarian tumor progression in vivo. FIG. 32A is a diagram showing xenogeneic ovarian cancer MA-148-Luc model in female NSG mice (N=5 per treatment group). FIG. 32B is a graph showing bioluminescent imaging indicative of tumor progression, measured as Total flux radiance (p/s), over three weeks in the MA148 mouse model treated with enriched NK cells and noted treatments. FIG. 32C is a graph illustrating bioluminescent imaging results on day 21 data point. FIG. 32D is a photograph illustrating total flux radiance (p/s) on day 21. FIG. 32E is a scatter plot of CD56+CD3− NK cell numbers from peritoneal lavages for the rhIL-15 and cam1615B7-H3 TriKE treatment groups at D21. FIG. 32F is a scatter plot of CD16 media fluorescence intensity on NK cells from peritoneal lavages for the rhIL-15 and cam1615B7-H3 TriKE treatment groups at day 21. * p<0.05, ** p<0.01.
MA-148-Luc ovarian cancer cells were incorporated into a previously described NK cell xenogeneic mouse model system. NSG mice (NOD.Cg-Prkdcscid Il2rgtm1Wjl/SzJ, n=5/group) were injected IP with 2.0×10^5 MA-148-luc cells and then three days later conditioned with low-dose total body irradiation (225 cGy). The following day, all groups received highly enriched NK cells (PBMC magnetically CD3 and CD19 depleted), equivalent to 1 million NK cells/mouse, and were started on the drug regimen. A single course of treatment consisted of an IP injection of […] of TriKE or 5 μg rhIL-15 given every day of the week (Monday-Friday) for three weeks. MA-148-luc cells are a subline of MA-148 that have been transfected with a luciferase reporter gene, allowing for imaging of the mice each week to determine their bioluminescent activity and to monitor tumor progression. Briefly, mice were injected with 100 μL of 30 mg/mL luciferin substrate 10 min prior to imaging and then anesthetized via inhalation of isoflurane gas (25). Mice were then imaged using the Xenogen Ivis 100 imaging system and analyzed with Living Image 2.5 software (Xenogen Corporation, Alameda, CA, USA). At the end of the experiment (day 21), all the animals were sacrificed, and postmortem peritoneal lavages were performed to analyze human NK cell content by flow cytometry. Animal imaging and analysis was performed at the University of Minnesota Imaging Center. Mouse studies were carried after approval (protocol 1908-37330A) from the Institutional Animal Care and Use Committee (IACUC) at the University of Minnesota and in compliance with their guidelines.
As illustrated in FIGS. 32A-32F, cam1615B7-H3 TriKE mediates anti-tumor activity in vivo. Determination of in vivo activity is a critical step for translation. However, prior to evaluating the ability of the cam1615B7-H3 TriKE to induce function against tumor the potential for toxicity was assessed. To do this NSG mice were irradiated, engrafted with 1 million NK cells, treated with nothing, IL-15, or cam1615B7-H3 for three weeks, and weights were tracked over the course of 90 days post initial treatment. […] This is not surprising given the low toxicity profile of IL-15 and the safety profile of B7-H3. […] In this model, human NK cells and human high grade serous MA-148-luc cells are injected into the peritoneal cavity of NSG mice.

## cam1615B7-H3: second-generation TriKE: humanized camelid anti-CD16 VHH, human wild-type IL-15, anti-B7-H3 mAb 376.96 scFv; SEQ ID NO:1
[1]
  NK cell IFNγ production against LNCaP: enhanced
  NK cell degranulation (CD107a) against LNCaP: enhanced
[2]; IP 30 g of TriKE or 5 μg rhIL-15 Monday-Friday for three weeks, enriched NK cells, vs IL-15 treated or tumor only
  tumor progression (bioluminescence), longitudinal: lowest tumor progression
[2]; TriKE-treated vs IL-15-treated mice
  PD-1 expression: lower (but not significant) trend of expression
[2]; day 21, vs IL-15 treated mice
  CD16 expression on NK cells from peritoneal lavages: higher levels of CD16 expression than IL-15 treated mice
[2]; day 21, vs tumor only group
  tumor burden at day 21: significantly lower tumor burden than the tumor only group
[2]; treatment not curative within this model
  disease outcome of treated animals: stable disease
